This passage reports IC50 results from patent US20220402950A1, “SUBSTITUTED BENZIMIDAZOLES AS PAD4 INHIBITORS” (BRISTOL-MYERS SQUIBB COMPANY, priority 2018, published 2022).

pIC50: −log10 of the molar value.

Sequence of human PAD4 (hPAD4) (Q9UM07 whole entry): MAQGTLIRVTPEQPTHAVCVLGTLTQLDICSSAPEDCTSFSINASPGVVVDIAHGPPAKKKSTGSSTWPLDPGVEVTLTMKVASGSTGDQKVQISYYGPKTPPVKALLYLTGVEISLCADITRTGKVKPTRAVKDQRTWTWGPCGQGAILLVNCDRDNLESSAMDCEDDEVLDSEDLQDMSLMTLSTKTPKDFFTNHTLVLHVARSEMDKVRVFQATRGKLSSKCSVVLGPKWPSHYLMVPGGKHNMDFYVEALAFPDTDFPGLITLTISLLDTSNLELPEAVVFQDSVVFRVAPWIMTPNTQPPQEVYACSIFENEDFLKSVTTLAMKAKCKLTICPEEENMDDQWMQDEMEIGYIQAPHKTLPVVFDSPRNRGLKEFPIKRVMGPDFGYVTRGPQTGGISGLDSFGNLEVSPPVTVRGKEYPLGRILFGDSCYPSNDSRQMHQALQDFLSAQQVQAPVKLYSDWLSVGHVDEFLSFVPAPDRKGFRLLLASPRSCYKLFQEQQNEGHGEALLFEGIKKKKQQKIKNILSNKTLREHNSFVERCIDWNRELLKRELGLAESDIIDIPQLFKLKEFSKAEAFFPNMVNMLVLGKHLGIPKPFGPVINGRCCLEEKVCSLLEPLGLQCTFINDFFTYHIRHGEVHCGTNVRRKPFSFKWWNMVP

This test addresses human PAD4 (hPAD4) (Homo sapiens, UniProt Q9UM07). Kind of test: RFMS Human PAD4 Functional Assay. The format is biochemical. Conditions: hPAD4 RFMS IC50, human PAD4, rapid-fire mass spectrum (RFMS) assay; 5 nM hPAD4, 250 μM BAEE. An outline of the steps: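 RapidFire ESI-MS quantification, normalised to a modified-citrulline internal standard, after phenyl glyoxal (final 4 mM) derivatisation of the TCA-quenched reaction. The enzyme (10 nM) sat 30 min with compound (up to 50 μM final) before 500 μM BAEE (as added) started a 90 min, 37 °C reaction. Buffer: HEPES pH 7.5, 50 μM calcium, 5 μM TPEN.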
The pIC50 is −log10 of the IC50, conventionally taken in molar units. Low readings indicate a high IC50, high ones a low IC50. Consider `COc1cc(C(=O)N2C[C@H]3CC[C@@H]2[C@@H]3N)cc2nc(-c3cc4cccc(-c5ccc(C(N)=O)cc5F)c4n3CC3CC3)n(C)c12` [Example 191, 4-(2-(5-((1R,4R,7R)-7-amino-2-azabicyclo[2.2.1]heptane-2-carbonyl)-7-methoxy-1-methyl-1H-benzo[d]imidazol-2-yl)-1-(cyclopropylmethyl)-1H-indol-7-yl)-3-fluorobenzamide], for which the negative-log IC50 (pIC50) was 7.09. Next, `COc1cc(C(=O)N2C[C@H]3CC[C@@H]2[C@@H]3N)cc2nc(-c3cc4cccc(-c5ccc6c(c5)C(C)(O)C(=O)N6)c4n3CC3CC3)n(C)c12` (stereo partly drawn) [Example 192, 5-(2-(5-((1R,4R,7R)-7-amino-2-azabicyclo[2.2.1]heptane-2-carbonyl)-7-methoxy-1-methyl-1H-benzo[d]imidazol-2-yl)-1-(cyclopropylmethyl)-1H-indol-7-yl)-3-hydroxy-3-methylindolin-2-one]: 7.55. Next, `COc1cc(C(=O)N2C[C@H]3CC[C@@H]2[C@@H]3N)cc2nc(-c3cc4cccc(-c5ccc(O)cc5C#N)c4n3CC3CC3)n(C)c12` [Example 193, 2-(2-(5-((1R,4R,7R)-7-amino-2-azabicyclo[2.2.1]heptane-2-carbonyl)-7-methoxy-1-methyl-1H-benzo[d]imidazol-2-yl)-1-(cyclopropylmethyl)-1H-indol-7-yl)-5-hydroxybenzonitrile]: 7.48.

In the case of `COc1cc(C(=O)N2C[C@H]3CC[C@@H]2[C@@H]3N)cc2nc(-c3cc4cccc(-c5ccc(C(N)=O)nc5)c4n3CC3CC3)n(C)c12` [Example 194, 5-(2-(5-((1R,4R,7R)-7-amino-2-azabicyclo[2.2.1]heptane-2-carbonyl)-7-methoxy-1-methyl-1H-benzo[d]imidazol-2-yl)-1-(cyclopropylmethyl)-1H-indol-7-yl)picolinamide], the pIC50 was 6.84. Against the preceding molecule, the pIC50 is 0.64 log units lower.

In turn, `COc1cc(C(=O)N2C[C@H]3CC[C@@H]2[C@@H]3N)cc2nc(-c3cc4cccc(-c5ccc(O)nc5)c4n3CC3CC3)n(C)c12` [Example 197, ((1R,4R,7R)-7-amino-2-azabicyclo[2.2.1]heptan-2-yl)(2-(1-(cyclopropylmethyl)-7-(6-hydroxypyridin-3-yl)-1H-indol-2-yl)-7-methoxy-1-methyl-1H-benzo[d]imidazol-5-yl)methanone] had a pIC50 of 6.92. This pIC50 and that of the molecule before are within 0.2 log units of each other. Next, `COc1cc(C(=O)N2C[C@H]3CC[C@@H]2[C@@H]3N)cc2nc(-c3cc4cccc(-c5ccc6c(c5)C(O)(C(F)(F)F)C(=O)N6)c4n3CC3CC3)n(C)c12` (stereo partly drawn) [Example 198, 5-(2-(5-((1R,4R,7R)-7-amino-2-azabicyclo[2.2.1]heptane-2-carbonyl)-7-methoxy-1-methyl-1H-benzo[d]imidazol-2-yl)-1-(cyclopropylmethyl)-1H-indol-7-yl)-3-hydroxy-3-(trifluoromethyl)indolin-2-one]: 7.59; `COc1cc(C(=O)N2C[C@H]3CC[C@@H]2[C@@H]3N)cc2nc(-c3cc4cccc(-c5cnc(C(N)=O)c(F)c5)c4n3CC3CC3)n(C)c12` [Example 199, 5-(2-(5-((1R,4R,7R)-7-amino-2-azabicyclo[2.2.1]heptane-2-carbonyl)-7-methoxy-1-methyl-1H-benzo[d]imidazol-2-yl)-1-(cyclopropylmethyl)-1H-indol-7-yl)-3-fluoropicolinamide]: 6.80; `COc1cc2c(cc1-c1cccc3cc(-c4nc5cc(C(=O)N6C[C@H]7CC[C@@H]6[C@@H]7N)cc(OC)c5n4C)n(CC4CC4)c13)CCC(=O)N2` [Example 204, 6-(2-(5-((1R,4R,7R)-7-amino-2-azabicyclo[2.2.1]heptane-2-carbonyl)-7-methoxy-1-methyl-1H-benzo[d]imidazol-2-yl)-1-(cyclopropylmethyl)-1H-indol-7-yl)-7-methoxy-3,4-dihydroquinolin-2(1H)-one]: 6.86. As to `COc1cc(C(=O)N2C[C@H](N)C[C@@H](F)C2)cc2nc(-c3cc4cccc(C5CCN(C(C)=O)CC5)c4n3CC3CC3)n(C)c12` [Example 205, 1-(4-(2-(5-((3R,5R)-3-amino-5-fluoropiperidine-1-carbonyl)-7-methoxy-1-methyl-1H-benzo[d]imidazol-2-yl)-1-(cyclopropylmethyl)-1H-indol-7-yl)piperidin-1-yl)ethan-1-one], the pIC50 was 7.39. `COc1cc(C(=O)N2C[C@H](N)C[C@@H](F)C2)cc2nc(-c3cc4cccc(-c5ccc(O)c(F)c5)c4n3CC3CC3)n(C)c12` [Example 206, ((3R,5R)-3-amino-5-fluoropiperidin-1-yl)(2-(1-(cyclopropylmethyl)-7-(3-fluoro-4-hydroxyphenyl)-1H-indol-2-yl)-7-methoxy-1-methyl-1H-benzo[d]imidazol-5-yl)methanone] had a pIC50 of 6.84. `COc1cc(C(=O)N2C[C@H](N)C[C@@H](F)C2)cc2nc(-c3cc4cccc(-c5ccc6c(c5)CC(=O)N6)c4n3CC3CC3)n(C)c12` [Example 207, 5-(2-(5-((3R,5R)-3-amino-5-fluoropiperidine-1-carbonyl)-7-methoxy-1-methyl-1H-benzo[d]imidazol-2-yl)-1-(cyclopropylmethyl)-1H-indol-7-yl)indolin-2-one]: the pIC50 was 7.15. `COc1cc(C(=O)N2C[C@H](N)C[C@@H](F)C2)cc2nc(-c3cc4cccc(-c5ccc6c(c5)C(C)(O)C(=O)N6)c4n3CC3CC3)n(C)c12` (stereo partly drawn) [Example 208, 5-(2-(5-((3R,5R)-3-amino-5-fluoropiperidine-1-carbonyl)-7-methoxy-1-methyl-1H-benzo[d]imidazol-2-yl)-1-(cyclopropylmethyl)-1H-indol-7-yl)-3-hydroxy-3-methylindolin-2-one] gave a negative logarithm of the IC50 (pIC50) of 7.15. Next, `COc1cc(C(=O)N2C[C@H](N)C[C@@H](F)C2)cc2nc(-c3cc4cccc(-c5ccc6c(c5)CNC6=O)c4n3CC3CC3)n(C)c12` [Example 209, 5-(2-(5-((3R,5R)-3-amino-5-fluoropiperidine-1-carbonyl)-7-methoxy-1-methyl-1H-benzo[d]imidazol-2-yl)-1-(cyclopropylmethyl)-1H-indol-7-yl)isoindolin-1-one]: 7.16; `COc1cc(C(=O)N2C[C@H]3CC[C@@H]2[C@@H]3N)cc2nc(-c3cc4cccc(C5CN(C(C)=O)C5)c4n3CC3CC3)n(Cc3cnn(C)c3)c12` [Example 210, 1-(3-(2-(5-((1R,4R,7R)-7-amino-2-azabicyclo[2.2.1]heptane-2-carbonyl)-7-methoxy-1-((1-methyl-1H-pyrazol-4-yl)methyl)-1H-benzo[d]imidazol-2-yl)-1-(cyclopropylmethyl)-1H-indol-7-yl)azetidin-1-yl)ethan-1-one]: 7.74. Next, `COC(=O)N1CC(c2cccc3cc(-c4nc5cc(C(=O)N6C[C@H](N)C[C@@H](F)C6)cc(OC)c5n4Cc4cnn(C)c4)n(CC4CC4)c23)C1` [Example 211, methyl 3-(2-(5-((3R,5R)-3-amino-5-fluoropiperidine-1-carbonyl)-7-methoxy-1-((1-methyl-1H-pyraozl-4-yl)methyl)-1H-benzo[d]imidazol-2-yl)-1-(cyclopropylmethyl)-1H-indol-7-yl)azetidine-1-carboxylate]: 7.59.

For the molecule `COc1cc(C(=O)N2C[C@H](N)C[C@@H](F)C2)cc2nc(-c3cc4cccc(C5CN(C(C)=O)C5)c4n3CC3CC3)n(Cc3cnn(C)c3)c12` [Example 212, 1-(3-(2-(5-((3R,5R)-3-amino-5-fluoropiperidine-1-carbonyl)-7-methoxy-1-((1-methyl-1H-pryazol-4-yl)methyl)-1H-benzo[d]imidazol-2-yl)-1-(cyclopropylmethyl)-1H-indol-7-yl)azetidin-1-yl)ethane-1-one], the pIC50 was 7.46.

In turn, `COC(=O)N1CC(c2cccc3cc(-c4nc5cc(C(=O)N6C[C@H]7CC[C@@H]6[C@@H]7N)cc(OC)c5n4Cc4cnn(C)c4)n(CC4CC4)c23)C1` [Example 213, methyl 3-(2-(5-((1R,4R,7R)-7-amino-2-azabicyclo[2.2.1]heptane-2-carbonyl)-7-methoxy-1-((1-methyl-1H-pyrazol-4-yl)methyl)-1H-benzo[d]imidazol-2-yl)-1-(cyclopropylmethyl)-1H-indol-7-yl)azetidine-1-carboxylate] gave a pIC50 of 7.68. The value for `COc1cc(C(=O)N2C[C@H]3CC[C@@H]2[C@@H]3N)cc2nc(-c3cc4cccc(C5CN(C(C)=O)C5)c4n3C)n(Cc3cnn(C)c3)c12` [Example 214, 1-(3-(2-(5-((1R,4R,7R)-7-amino-2-azabicyclo[2.2.1]heptane-2-carbonyl)-7-methoxy-1-((1-methyl-1H-pyrazol-4-yl)methyl)-1H-benzo[d]imidazol-2-yl)-1-methyl-1H-indol-7-yl)azetidin-1-yl)ethan-1-one] was 6.81. The value for `COc1cc(C(=O)N2C[C@H](N)C[C@@H](F)C2)cc2nc(-c3cc4cccc(C5CN(C(C)=O)C5)c4n3C)n(Cc3cnn(C)c3)c12` [Example 215, 1-(3-(2-(5-((3R,5R)-3-amino-5-fluoropiperidine-1-carbonyl)-7-methoxy-1-((1-methyl-1H-pyrazol-4-yl)methyl)-1H-benzo[d]imidazol-2-yl)-1-methyl-1H-indol-7-yl)azetidin-1-yl)ethane-1-one] was 6.74; that for `COC(=O)N1CC(c2cccc3cc(-c4nc5cc(C(=O)N6C[C@H]7CC[C@@H]6[C@@H]7N)cc(OC)c5n4Cc4cnn(C)c4)n(C)c23)C1` [Example 216, methyl 3-(2-(5-((1R,4R,7R)-7-amino-2-azabicyclo[2.2.1]heptane-2-carbonyl)-7-methoxy-1-((1-methyl-1H-pyrazol-4-yl)methyl)-1H-benzo[d]imidazol-2-yl)-1-methyl-1H-indol-7-yl)azetidine-1-carboxylate] was 7.00; that for `COC(=O)N1CCC(c2cccc3cc(-c4nc5cc(C(=O)N6C[C@H]7CC[C@@H]6[C@@H]7N)cc(OC)c5n4C)n(CC4CC4)c23)CC1` [Example 217, methyl 4-(2-(5-((1R,4R,7R)-7-amino-2-azabicyclo[2.2.1]heptane-2-carbonyl)-7-methoxy-1-methyl-1H-benzo[d]imidazol-2-yl)-1-(cyclopropylmethyl)-1H-indol-7-yl)piperidine-1-carboxylate] was 7.57.
